Reference: ChEMBL document CHEMBL4261603, “Development of high potent and selective Bcl-2 inhibitors bearing the structural elements of natural product artemisinin” (Eur J Med Chem, 2018)

How the values were obtained:
[1] = target: Apoptosis regulator Bcl-2 (Homo sapiens, UniProt P10415); assay: Inhibition of FAM-labelled Bax binding to Bcl2 (unknown origin) after 30 mins by fluorescence polarization assay
Bcl-2-like protein 1 = Bcl-2-like protein 1 (Homo sapiens, UniProt Q07817); assay: Inhibition of FAM-labelled Bax binding to Bcl-xL (unknown origin) after 30 mins by fluorescence polarization assay
Homo sapiens = organism: Homo sapiens; assay: Selectivity factor, ratio of IC50 for Bcl-xL (unknown origin) to Bcl2 (unknown origin)
RS4-11 = assay: Antiproliferative activity against human RS4:11 cells after 72 hrs by MTS assay; assay type: functional, cell-based; details: RS4-11, 72 h
Toledo = assay: Antiproliferative activity against human Toledo cells after 72 hrs by MTS assay; assay type: functional, cell-based
[2] = Apparent permeability across apical to basolateral side in human Caco2 cells at 20 uM; assay type: ADME, cell-based; details: Caco-2
[3] = Apparent permeability across basolateral to apical side in human Caco2 cells at 20 uM; assay type: ADME, cell-based; details: Caco-2
[4] = Efflux ratio of apparent permeability across […] to apical side in human Caco2 cells at 20 uM; assay type: ADME, cell-based; details: Caco-2
[5] = target: Voltage-gated inwardly rectifying potassium channel KCNH2 (Homo sapiens, UniProt Q12809); assay: Inhibition of human ERG
Sequence of Voltage-gated inwardly rectifying potassium channel KCNH2 (Q12809 whole entry): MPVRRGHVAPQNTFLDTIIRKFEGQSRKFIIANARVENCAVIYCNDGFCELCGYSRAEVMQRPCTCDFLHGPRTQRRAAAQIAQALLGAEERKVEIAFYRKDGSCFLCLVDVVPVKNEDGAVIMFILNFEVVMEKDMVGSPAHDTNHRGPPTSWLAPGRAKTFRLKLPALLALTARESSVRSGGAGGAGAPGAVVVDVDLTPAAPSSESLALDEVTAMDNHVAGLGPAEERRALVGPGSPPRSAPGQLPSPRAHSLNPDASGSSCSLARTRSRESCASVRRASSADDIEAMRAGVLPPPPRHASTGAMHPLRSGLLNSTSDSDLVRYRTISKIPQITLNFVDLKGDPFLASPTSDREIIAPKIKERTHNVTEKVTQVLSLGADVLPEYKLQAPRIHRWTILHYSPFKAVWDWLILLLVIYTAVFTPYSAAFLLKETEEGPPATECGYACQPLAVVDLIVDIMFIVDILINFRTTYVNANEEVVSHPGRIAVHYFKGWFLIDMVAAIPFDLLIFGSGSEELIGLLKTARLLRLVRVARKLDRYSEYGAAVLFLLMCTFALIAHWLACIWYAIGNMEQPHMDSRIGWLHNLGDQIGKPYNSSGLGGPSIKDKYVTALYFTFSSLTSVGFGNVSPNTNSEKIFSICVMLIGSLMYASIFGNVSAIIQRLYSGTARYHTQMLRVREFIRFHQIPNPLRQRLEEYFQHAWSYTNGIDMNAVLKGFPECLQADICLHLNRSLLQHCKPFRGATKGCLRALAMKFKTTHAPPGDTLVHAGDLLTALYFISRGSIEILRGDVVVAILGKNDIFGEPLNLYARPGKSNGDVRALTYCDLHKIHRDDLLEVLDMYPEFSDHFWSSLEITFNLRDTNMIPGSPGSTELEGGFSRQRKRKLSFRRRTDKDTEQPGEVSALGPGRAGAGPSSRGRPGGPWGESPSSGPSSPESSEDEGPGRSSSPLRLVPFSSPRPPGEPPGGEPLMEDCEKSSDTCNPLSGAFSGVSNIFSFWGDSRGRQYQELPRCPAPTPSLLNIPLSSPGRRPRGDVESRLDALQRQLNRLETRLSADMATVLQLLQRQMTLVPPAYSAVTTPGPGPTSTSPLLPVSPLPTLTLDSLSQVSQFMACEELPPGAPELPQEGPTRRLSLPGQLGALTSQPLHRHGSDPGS

Sequence of Bcl-2-like protein 1 (Q07817 whole entry): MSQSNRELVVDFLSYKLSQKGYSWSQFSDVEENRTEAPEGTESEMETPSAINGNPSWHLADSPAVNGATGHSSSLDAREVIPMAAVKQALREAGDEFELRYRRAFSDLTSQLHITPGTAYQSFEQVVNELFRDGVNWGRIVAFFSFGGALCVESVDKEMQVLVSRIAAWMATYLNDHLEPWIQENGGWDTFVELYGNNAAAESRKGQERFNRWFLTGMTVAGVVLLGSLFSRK
Sequence of Apoptosis regulator Bcl-2 (P10415 whole entry): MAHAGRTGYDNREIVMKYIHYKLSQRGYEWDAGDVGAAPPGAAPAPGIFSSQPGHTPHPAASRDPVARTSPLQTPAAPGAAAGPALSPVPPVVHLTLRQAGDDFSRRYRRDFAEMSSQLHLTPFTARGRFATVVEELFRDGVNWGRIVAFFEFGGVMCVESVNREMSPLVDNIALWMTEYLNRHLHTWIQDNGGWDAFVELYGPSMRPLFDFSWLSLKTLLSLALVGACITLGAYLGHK

Row | Compound | IC50 [1] | IC50 (Bcl-2-like protein 1) | Ratio IC50 (Homo sapiens) | IC50 (RS4-11) | IC50 (Toledo) | Papp A→B at 20 µM [2] | Papp B→A at 20 µM [3] | efflux ratio at 20 µM [4] | IC50 [5]
1 | C[C@H]1[C@@H](CCN2CCN(c3ccc(C(=O)NS(=O)(=O)c4ccc(NCC5CCOCC5)c([N+](=O)[O-])c4)c(Oc4cnc5[nH]ccc5c4)c3)CC2)O[C@@H]2O[C@@]3(C)CC[C@H]4[C@H](C)CC[C@@H]1[C@@]24OO3 | 9.7 nM | > 1000 nM | > 103 | – | – | – | – | – | –
2 | C[C@H]1[C@@H](CC(=O)N2CCN(c3ccc(C(=O)NS(=O)(=O)c4ccc(NCC5CCOCC5)c([N+](=O)[O-])c4)c(Oc4cnc5[nH]ccc5c4)c3)CC2)O[C@@H]2O[C@@]3(C)CC[C@H]4[C@H](C)CC[C@@H]1[C@@]24O3 | 3.5 nM | 270 nM | 77.2 | > 1000 nM | > 1000 nM | – | – | – | –
3 | CO[C@H]1OC2O[C@@]3(C)CC[C@H]4[C@H](C)CC[C@@H]([C@]1(C)CC(=O)N1CCN(c5ccc(C(=O)NS(=O)(=O)c6ccc(NCC7CCOCC7)c([N+](=O)[O-])c6)c(Oc6cnc7[nH]ccc7c6)c5)CC1)[C@@]24OO3 (stereo partly drawn) | 34.7 nM | > 1000 nM | > 28.8 | – | – | – | – | – | –
4 | C[C@@H]1CC[C@H]2[C@@H](C)C(OCCN3CCN(c4ccc(C(=O)NS(=O)(=O)c5ccc(NCC6CCOCC6)c([N+](=O)[O-])c5)c(Oc5cnc6[nH]ccc6c5)c4)C[C@H]3CO)O[C@@H]3O[C@@]4(C)CC[C@@H]1[C@]32OO4 (stereo partly drawn) | 67.1 nM | > 1000 nM | 14.9 | > 1000 nM | > 1000 nM | – | – | – | –
5 | C[C@H]1[C@@H](OCCN2CCN(c3ccc(C(=O)NS(=O)(=O)c4ccc(NCC5CCOCC5)c([N+](=O)[O-])c4)c(Oc4cnc5[nH]ccc5c4)c3)CC2)O[C@@H]2O[C@]3(C)O[C@]24[C@H]1CC[C@@H](C)[C@@H]4C[C@H]3O | 31.9 nM | > 1000 nM | > 31.3 | – | – | – | – | – | –
6 | C[C@H]1[C@@H](OCCN2CCN(c3ccc(C(=O)NS(=O)(=O)c4ccc(NCC5CCOCC5)c([N+](=O)[O-])c4)c(Oc4cnc5[nH]ccc5c4)c3)CC2)O[C@@H]2O[C@@]3(C)CC[C@H]4[C@H](C)CC[C@@H]1[C@@]24OO3 | 5 nM | 279 nM | 55.3 | 520 nM | 950 nM | 0.21 ×10⁻⁶ cm/s | 6.07 ×10⁻⁶ cm/s | 28.8 | > 40000 nM
7 | C[C@@H]1CC[C@H]2[C@@](C)(O)[C@@H](OCCN3CCN(c4ccc(C(=O)NS(=O)(=O)c5ccc(NCC6CCOCC6)c([N+](=O)[O-])c5)c(Oc5cnc6[nH]ccc6c5)c4)CC3)O[C@@H]3O[C@@]4(C)CC[C@@H]1[C@]32OO4 | 86.5 nM | 287 nM | 3.3 | – | – | – | – | – | –
8 | C[C@H]1[C@H](N(C)CCN2CCN(c3ccc(C(=O)NS(=O)(=O)c4ccc(NCC5CCOCC5)c([N+](=O)[O-])c4)c(Oc4cnc5[nH]ccc5c4)c3)CC2)O[C@@H]2O[C@@]3(C)CC[C@H]4[C@H](C)CC[C@@H]1[C@@]24OO3 | 16.7 nM | > 1000 nM | > 59.9 | – | – | – | – | – | –
9 | C[C@H]1[C@@H](CC(=O)N2CCN(c3ccc(C(=O)NS(=O)(=O)c4ccc(NCC5CCOCC5)c([N+](=O)[O-])c4)c(Oc4cnc5[nH]ccc5c4)c3)CC2)O[C@@H]2O[C@@]3(C)CC[C@H]4[C@H](C)CC[C@@H]1[C@@]24OO3 | 11.9 nM | 109 nM | 9.16 | – | – | – | – | – | –
10 | C[C@H]1[C@@H](CCN2CCN(c3ccc(C(=O)NS(=O)(=O)c4ccc(NCC5CCOCC5)c([N+](=O)[O-])c4)c(Oc4cnc5[nH]ccc5c4)c3)CC2)O[C@@H]2O[C@@]3(C)CC[C@H]4[C@H](C)CC[C@@H]1[C@@]24O3 | 1.8 nM | > 1000 nM | > 546 | 1300 nM | 2600 nM | – | – | – | –
11 | C[C@@H]1CC[C@H]2[C@@H](C)C(OCCNC3CCN(c4ccc(C(=O)NS(=O)(=O)c5ccc(NCC6CCOCC6)c([N+](=O)[O-])c5)c(Oc5cnc6[nH]ccc6c5)c4)CC3)O[C@@H]3O[C@@]4(C)CC[C@@H]1[C@]32OO4 (stereo partly drawn) | 1.9 nM | > 1000 nM | > 526 | > 1000 nM | > 1000 nM | – | – | – | –
12 | C[C@@H]1CC[C@H]2[C@@H](C)C(OCCN3CCN(c4ccc(C(=O)NS(=O)(=O)c5ccc(NCC6CCOCC6)c([N+](=O)[O-])c5)c(Oc5cnc6[nH]ccc6c5)c4)C[C@@H]3CO)O[C@@H]3O[C@@]4(C)CC[C@@H]1[C@]32OO4 (stereo partly drawn) | 28.7 nM | > 1000 nM | 34.8 | > 1000 nM | > 1000 nM | – | – | – | –
13 | C[C@@H]1CC[C@H]2C(CN3CCN(c4ccc(C(=O)NS(=O)(=O)c5ccc(NCC6CCOCC6)c([N+](=O)[O-])c5)c(Oc5cnc6[nH]ccc6c5)c4)CC3)=C(C(F)(F)F)O[C@@H]3O[C@@]4(C)CC[C@@H]1[C@]32O4 | 2.8 nM | 970 nM | 343 | 1900 nM | 7400 nM | – | – | – | –
14 | C[C@H]1[C@@H](OCCN2CCN(c3ccc(C(=O)NS(=O)(=O)c4ccc(NCC5CCOCC5)c([N+](=O)[O-])c4)c(Oc4cnc5[nH]ccc5c4)c3)CC2)O[C@@H]2O[C@@]3(C)CC[C@H]4[C@H](C)CC[C@@H]1[C@@]24O3 | 2.2 nM | 624 nM | 280 | 4400 nM | 9700 nM | – | – | – | –
15 | CC1(C)CCC(CN2CCN(c3ccc(C(=O)NS(=O)(=O)c4ccc(NCC5CCOCC5)c([N+](=O)[O-])c4)c(Oc4cnc5[nH]ccc5c4)c3)CC2)=C(c2ccc(Cl)cc2)C1 [VENETOCLAX] | – | – | – | 6 nM | 11 nM | – | – | – | –
16 | C[C@@H]1CC[C@@H]2[C@]34OO[C@](C)(CC[C@@H]13)O[C@H]4O[C@]2(C)C(=O)N1CCN(c2ccc(C(=O)NS(=O)(=O)c3ccc(NCC4CCOCC4)c([N+](=O)[O-])c3)c(Oc3cnc4[nH]ccc4c3)c2)CC1 | 13 nM | 512 nM | 39.2 | – | – | – | – | – | –
17 | C[C@H]1[C@@H](CC(=O)N2CCN(c3ccc(C(=O)NS(=O)(=O)c4ccc(NCC5CCOCC5)c([N+](=O)[O-])c4)c(Oc4cnc5[nH]ccc5c4)c3)CC2)O[C@@H]2O[C@]3(C)O[C@]24[C@H]1CC[C@@H](C)[C@@H]4C[C@H]3O | 50.1 nM | 765 nM | 15.3 | > 1000 nM | > 1000 nM | – | – | – | –
18 | C[C@@H]1CC[C@H]2C(CN3CCN(c4ccc(C(=O)NS(=O)(=O)c5ccc(NCC6CCOCC6)c([N+](=O)[O-])c5)c(Oc5cnc6[nH]ccc6c5)c4)CC3)=C(C(F)(F)F)O[C@@H]3O[C@@]4(C)CC[C@@H]1[C@]32OO4 | 6.2 nM | 71.9 nM | 11.7 | > 1000 nM | > 1000 nM | – | – | – | –
19 | C[C@H]1[C@@H](CCCN2CCN(c3ccc(C(=O)NS(=O)(=O)c4ccc(NCC5CCOCC5)c([N+](=O)[O-])c4)c(Oc4cnc5[nH]ccc5c4)c3)CC2)O[C@@H]2O[C@@]3(C)CC[C@H]4[C@H](C)CC[C@@H]1[C@@]24OO3 | 1.2 nM | > 1000 nM | > 806 | 890 nM | 880 nM | – | – | – | > 40000 nM
